Experimental data as given in patent US6667413B2, “Uracil compounds and use thereof” (Sumitomo Chemical Company, Limited, priority 1999, dated 2003).

How the values were obtained:
Type in all cases: in vivo
[1] = tested on: barnyardgrass (Echinochloa crus-galli); experiment: Test Example 2: soil surface treatment, herbicidal activity; conditions: sprayed over the surface of the soil, 500 g/ha, 7 days after application
Description: (§1) A cylindrical plastic pot having a diameter of 10 cm and a depth of 10 cm was filled with soil and then seeded with Ivyleaf morningglory (Ipomoea hederacea), velvetleaf (Abutilon theophrasti) and barnyardgrass (Echinochloa crus-galli). Then, each of the compounds 1-1,2-1 and 3-1 was formulated into an emulsifiable concentrate according to Formulation Example 2 and then diluted to the prescribed amount with water, and the dilution was uniformly sprayed over the surface of the soil with a sprayer at a rate of 1000 liters per hectare. After the application, the test plants were grown in the greenhouse for 7 days, and the herbicidal activity of the applied composition was examined.

[2] = tested on: Ivyleaf morningglory (Ipomoea hederacea); experiment: as above; conditions: sprayed over the surface of the soil, 500 g/ha, 7 days after application
Description: as §1

[3] = tested on: velvetleaf (Abutilon theophrasti); experiment: as above; conditions: sprayed over the surface of the soil, 500 g/ha, 7 days after application
Description: as §1

[4] = tested on: blackgrass (Alopecurus myosuroides); experiment: Test Example 1: foliar treatment, herbicidal activity; conditions: foliar spray, 125 g/ha, 7 days after application
Description: (§2) A cylindrical plastic pot having a diameter of 10 cm and a depth of 10 cm was filled with soil and then seeded with Ivyleaf morningglory (Ipomoea hederacea), velvetleaf (Abutilon theophrasti), barnyardgrass (Echinochloa crus-galli) and blackgrass (Alopecurus myosuroides). These test plants were grown in a greenhouse for 9 days. Then, each of compounds 1-1,2-1, 3-1,3-2, 3-11 and 3-12 was formulated into an emulsifiable concentrate according to Formulation Example 2 and then diluted to the prescribed amount with water containing a spreading agent and the dilution was uniformly sprayed over the foliage of the test plants with a sprayer at a rate of 1000 liters per hectare After the application, the test plants were grown in the greenhouse for 7 days, and the herbicidal activity of the applied composition was determined.

[5] = tested on: barnyardgrass (Echinochloa crus-galli); experiment: as above; conditions: foliar spray, 125 g/ha, 7 days after application
Description: as §2

[6] = tested on: Ivyleaf morningglory (Ipomoea hederacea); experiment: as above; conditions: foliar spray, 125 g/ha, 7 days after application
Description: as §2

[7] = tested on: velvetleaf (Abutilon theophrasti); experiment: as above; conditions: foliar spray, 125 g/ha, 7 days after application
Description: as §2

wild oat (Avena fatua) = experiment: Test Example 6: foliar treatment, herbicidal activity index; design: key: 0: no or little difference in the degree of germination or growth between the treated and the untreated tested plants at the time of examination; 10: the test plants died complete or their germination or growth was completely inhibited; conditions: foliar spray, 4 days after application, index 0 to 10
Description: (§3) A plastic pot (27 cm×19 cm×7 cm) was filled with soil and then seeded with Johnsongrass (Sorghum halepense), Giant foxtail (Setaria faberi), barnyardgrass (Echinochloa crus-galli), large crabgrass (Digitaria sanguinalis), Broadleaf signalgrass (Brachiaria platyphylla) and wild oat (Avena fatua). These test plants were grown in a greenhouse for 25 days. After then, each of the compounds 3-11, 4-22, B and C was formulated into an emulsifiable concentrate according to Formulation Example 2 and then diluted to the prescribed amount with water containing a spreading agent and the dilution was uniformly sprayed over the foliage of the test plants with a sprayer at a rate of 1000 liters per hectare. After the application, the test plants were grown in the greenhouse for 4 days, and the herbicidal activity was examined. (In the Table 9, the test plants are shown as follows. Johnsongrass: J, Giant foxtail: GF, Barnyardgrass: B Large crabgrass: LC, Broadleaf signalgrass: BC wild oat: W

[8] = tested on: barnyardgrass (Echinochloa crus-galli); experiment: as above; design: key: 0: no or little difference in the degree of germination or growth between the treated and the untreated tested plants at the time of examination; 10: the test plants died complete or their germination or growth was completely inhibited; conditions: foliar spray, 4 days after application, index 0 to 10
Description: as §3

[9] = tested on: Broadleaf signalgrass (Brachiaria platyphylla); experiment: as above; design: key: 0: no or little difference in the degree of germination or growth between the treated and the untreated tested plants at the time of examination; 10: the test plants died complete or their germination or growth was completely inhibited; conditions: foliar spray, 4 days after application, index 0 to 10
Description: as §3

[10] = tested on: Johnsongrass (Sorghum halepense); experiment: as above; design: key: 0: no or little difference in the degree of germination or growth between the treated and the untreated tested plants at the time of examination; 10: the test plants died complete or their germination or growth was completely inhibited; conditions: foliar spray, 4 days after application, index 0 to 10
Description: as §3

[11] = tested on: Giant foxtail (Setaria faberi); experiment: as above; design: key: 0: no or little difference in the degree of germination or growth between the treated and the untreated tested plants at the time of examination; 10: the test plants died complete or their germination or growth was completely inhibited; conditions: foliar spray, 4 days after application, index 0 to 10
Description: as §3

[12] = tested on: large crabgrass (Digitaria sanguinalis); experiment: as above; design: key: 0: no or little difference in the degree of germination or growth between the treated and the untreated tested plants at the time of examination; 10: the test plants died complete or their germination or growth was completely inhibited; conditions: foliar spray, 4 days after application, index 0 to 10
Description: as §3

[13] = tested on: blackgrass (Alopecurus myosuroides); experiment: Test Example 4: soil surface treatment, herbicidal activity; conditions: sprayed over the surface of the soil, 2000 g/ha, 7 days after application
Description: as §1, with “theophrasti),” for “theophrasti) and”, “crus-galli) and blackgrass (Alopecurus myosuroides).” for “crus-galli).”, “3-2,3-11, 3-12, 3-16, 3-20” for “1-1,2-1”, “3-198” for “3-1”

[14] = tested on: barnyardgrass (Echinochloa crus-galli); experiment: as above; conditions: sprayed over the surface of the soil, 2000 g/ha, 7 days after application
Description: as §1, with “theophrasti),” for “theophrasti) and”, “crus-galli) and blackgrass (Alopecurus myosuroides).” for “crus-galli).”, “3-2,3-11, 3-12, 3-16, 3-20” for “1-1,2-1”, “3-198” for “3-1”

[15] = tested on: Ivyleaf morningglory (Ipomoea hederacea); experiment: as above; conditions: sprayed over the surface of the soil, 2000 g/ha, 7 days after application
Description: as §1, with “theophrasti),” for “theophrasti) and”, “crus-galli) and blackgrass (Alopecurus myosuroides).” for “crus-galli).”, “3-2,3-11, 3-12, 3-16, 3-20” for “1-1,2-1”, “3-198” for “3-1”

[16] = tested on: velvetleaf (Abutilon theophrasti); experiment: as above; conditions: sprayed over the surface of the soil, 2000 g/ha, 7 days after application
Description: as §1, with “theophrasti),” for “theophrasti) and”, “crus-galli) and blackgrass (Alopecurus myosuroides).” for “crus-galli).”, “3-2,3-11, 3-12, 3-16, 3-20” for “1-1,2-1”, “3-198” for “3-1”

COC(=O)C(C)Oc1ccc(Oc2cc(-n3c(=O)cc(C(F)(F)F)n(C)c3=O)c(F)cc2Cl)cc1 (centres unmarked) [Compound 1-1, methyl 2-[4-{2-chloro-4-fluoro-5-[3-methyl-2,6-dioxo-4-(trifluoromethyl)-1,2,3,6-tetrahydropyrimidin-1-yl]phenoxy}phenoxy]propionate]
emergence of barnyardgrass [1]: completely controlled
emergence of Ivyleaf morningglory [2]: completely controlled
emergence of velvetleaf [3]: completely controlled
growth of blackgrass [4]: completely controlled
growth of barnyardgrass [5]: completely controlled
growth of Ivyleaf morningglory [6]: completely controlled
growth of velvetleaf [7]: completely controlled

COC(=O)COc1ccccc1Oc1cc(-n2c(=O)cc(C(F)(F)F)n(C)c2=O)c(F)cc1C#N [Compound 4-22]
Herbicidal activity W (wild oat (Avena fatua); 0.33 g/ha): 8
Herbicidal activity W (wild oat (Avena fatua); 1 g/ha): 9
Herbicidal activity W (wild oat (Avena fatua); 3.3 g/ha): 10
Herbicidal activity B ([8]; 0.33 g/ha): 8
Herbicidal activity B ([8]; 1 g/ha): 9
Herbicidal activity B ([8]; 3.3 g/ha): 9
Herbicidal activity BC ([9]; 0.33 g/ha): 8
Herbicidal activity BC ([9]; 1 g/ha): 8
Herbicidal activity BC ([9]; 3.3 g/ha): 9
Herbicidal activity J ([10]; 0.33 g/ha): 8
Herbicidal activity J ([10]; 1 g/ha): 8
Herbicidal activity J ([10]; 3.3 g/ha): 9
Herbicidal activity GF ([11]; 0.33 g/ha): 7
Herbicidal activity GF ([11]; 1 g/ha): 8
Herbicidal activity GF ([11]; 3.3 g/ha): 10
Herbicidal activity LC ([12]; 0.33 g/ha): 9
Herbicidal activity LC ([12]; 1 g/ha): 9
Herbicidal activity LC ([12]; 3.3 g/ha): 9

COC(=O)c1ccccc1Oc1cc(-n2c(=O)cc(C(F)(F)F)n(C)c2=O)c(F)cc1C#N [C, reference compound]
Herbicidal activity W (wild oat (Avena fatua); 0.33 g/ha): 1
Herbicidal activity W (wild oat (Avena fatua); 1 g/ha): 3
Herbicidal activity W (wild oat (Avena fatua); 3.3 g/ha): 5
Herbicidal activity B ([8]; 0.33 g/ha): 1
Herbicidal activity B ([8]; 1 g/ha): 4
Herbicidal activity B ([8]; 3.3 g/ha): 6
Herbicidal activity BC ([9]; 0.33 g/ha): 2
Herbicidal activity BC ([9]; 1 g/ha): 3
Herbicidal activity BC ([9]; 3.3 g/ha): 6
Herbicidal activity J ([10]; 0.33 g/ha): 2
Herbicidal activity J ([10]; 1 g/ha): 4
Herbicidal activity J ([10]; 3.3 g/ha): 6
Herbicidal activity GF ([11]; 0.33 g/ha): 1
Herbicidal activity GF ([11]; 1 g/ha): 3
Herbicidal activity GF ([11]; 3.3 g/ha): 4
Herbicidal activity LC ([12]; 0.33 g/ha): 2
Herbicidal activity LC ([12]; 1 g/ha): 3
Herbicidal activity LC ([12]; 3.3 g/ha): 5

COC(=O)C(C)Oc1cccc(Oc2cc(-n3c(=O)cc(C(F)(F)F)n(C)c3=O)c(F)cc2Cl)c1 (centres unmarked) [Compound 2-1, methyl 2-[3-{2-chloro-4-fluoro-5-[3-methyl-2,6-dioxo-4-(trifluoromethyl)-1,2,3,6-tetrahydropyrimidin-1-yl]phenoxy}phenoxy]propionate]
emergence of barnyardgrass [1]: completely controlled
emergence of Ivyleaf morningglory [2]: completely controlled
emergence of velvetleaf [3]: completely controlled
growth of blackgrass [4]: completely controlled
growth of barnyardgrass [5]: completely controlled
growth of Ivyleaf morningglory [6]: completely controlled
growth of velvetleaf [7]: completely controlled

COC(=O)COc1ccccc1Oc1cc(-n2c(=O)cc(C(F)(F)F)n(C)c2=O)c(F)cc1Cl [Compound 3-11, Methyl [2-{2-chloro-4-fluoro-5-[3-methyl-2,6-dioxo-4-(trifluoromethyl)-1,2,3,6-tetrahydropyrimidin-1-yl]phenoxy}phenoxy]acetate]
emergence of blackgrass [13]: completely controlled
emergence of barnyardgrass [14]: completely controlled
emergence of Ivyleaf morningglory [15]: completely controlled
emergence of velvetleaf [16]: completely controlled
growth of blackgrass [4]: completely controlled
growth of barnyardgrass [5]: completely controlled
growth of Ivyleaf morningglory [6]: completely controlled
growth of velvetleaf [7]: completely controlled
Herbicidal activity W (wild oat (Avena fatua); 0.33 g/ha): 8
Herbicidal activity W (wild oat (Avena fatua); 1 g/ha): 10
Herbicidal activity W (wild oat (Avena fatua); 3.3 g/ha): 10
Herbicidal activity B ([8]; 0.33 g/ha): 7
Herbicidal activity B ([8]; 1 g/ha): 8
Herbicidal activity B ([8]; 3.3 g/ha): 10
Herbicidal activity BC ([9]; 0.33 g/ha): 8
Herbicidal activity BC ([9]; 1 g/ha): 9
Herbicidal activity BC ([9]; 3.3 g/ha): 10
Herbicidal activity J ([10]; 0.33 g/ha): 8
Herbicidal activity J ([10]; 1 g/ha): 9
Herbicidal activity J ([10]; 3.3 g/ha): 10
Herbicidal activity GF ([11]; 0.33 g/ha): 8
Herbicidal activity GF ([11]; 1 g/ha): 9
Herbicidal activity GF ([11]; 3.3 g/ha): 9
Herbicidal activity LC ([12]; 0.33 g/ha): 8
Herbicidal activity LC ([12]; 1 g/ha): 9
Herbicidal activity LC ([12]; 3.3 g/ha): 10

CCOC(=O)C(C)Oc1ccccc1Oc1cc(-n2c(=O)cc(C(F)(F)F)n(C)c2=O)c(F)cc1Cl (centres unmarked) [Compound 3-2, Ethyl 2-[2-{2-chloro-4-fluoro-5-[3-methyl-2,6-dioxo-4-(trifluoromethyl)-1,2,3,6-tetrahydropyrimidin-1-yl]phenoxy}phenoxy]propionate]
emergence of blackgrass [13]: completely controlled
emergence of barnyardgrass [14]: completely controlled
emergence of Ivyleaf morningglory [15]: completely controlled
emergence of velvetleaf [16]: completely controlled
growth of blackgrass [4]: completely controlled
growth of barnyardgrass [5]: completely controlled
growth of Ivyleaf morningglory [6]: completely controlled
growth of velvetleaf [7]: completely controlled

CCOC(=O)COc1ccccc1Oc1cc(-n2c(=O)cc(C(F)(F)F)n(C)c2=O)c(F)cc1Cl [Compound 3-12, Ethyl [2-{2-chloro-4-fluoro-5-[3-methyl-2,6-dioxo-4-(trifluoromethyl)-1,2,3,6-tetrahydropyrimidin-1-yl]phenoxy}phenoxy]acetate]
emergence of blackgrass [13]: completely controlled
emergence of barnyardgrass [14]: completely controlled
emergence of Ivyleaf morningglory [15]: completely controlled
emergence of velvetleaf [16]: completely controlled
growth of blackgrass [4]: completely controlled
growth of barnyardgrass [5]: completely controlled
growth of Ivyleaf morningglory [6]: completely controlled
growth of velvetleaf [7]: completely controlled

COc1ccccc1Oc1cc(-n2c(=O)cc(C(F)(F)F)n(C)c2=O)c(F)cc1C#N [B, reference compound]
Herbicidal activity W (wild oat (Avena fatua); 0.33 g/ha): 2
Herbicidal activity W (wild oat (Avena fatua); 1 g/ha): 5
Herbicidal activity W (wild oat (Avena fatua); 3.3 g/ha): 7
Herbicidal activity B ([8]; 0.33 g/ha): 2
Herbicidal activity B ([8]; 1 g/ha): 6
Herbicidal activity B ([8]; 3.3 g/ha): 7
Herbicidal activity BC ([9]; 0.33 g/ha): 2
Herbicidal activity BC ([9]; 1 g/ha): 6
Herbicidal activity BC ([9]; 3.3 g/ha): 8
Herbicidal activity J ([10]; 0.33 g/ha): 2
Herbicidal activity J ([10]; 1 g/ha): 7
Herbicidal activity J ([10]; 3.3 g/ha): 7
Herbicidal activity GF ([11]; 0.33 g/ha): 3
Herbicidal activity GF ([11]; 1 g/ha): 5
Herbicidal activity GF ([11]; 3.3 g/ha): 7
Herbicidal activity LC ([12]; 0.33 g/ha): 3
Herbicidal activity LC ([12]; 1 g/ha): 7
Herbicidal activity LC ([12]; 3.3 g/ha): 8
